In patent US5391540A, “Substituted pyridine compounds” (Rohm and Haas Company, priority 1993, dated 1995):

What was measured:
Experiment in all cases: Pre-emergent herbicidal activity (Table A)
Assay type in all cases: in vivo
Annual Bluegrass = conditions: pre-emergence, Anbg, 11.2 kg/ha, 10-14 days, read-out: herbicidal rating (% inhibition)
Method: (§1) Tables A and B summarize results of tests conducted to determine the pre-emergent herbicidal activity of the compounds of this invention. The herbicidal ratings used in Tables A and B were assigned according to a scale based on the percent inhibition of each plant species. The herbicide rating symbols in Tables A and B are defined as follows: […]
(§2) One set of pre-emergent tests was conducted as follows:
(§3) Topsoil was placed in a pan and compacted to a depth of 0.95 to 1.27 cm. from the top of the pan. A predetermined number of seeds of each of several monocotyledonous and dicotyledonous annual plant species and/or vegetative propagules of various perennial plant species were placed on top of the soil. The soil required to level fill a pan after seeding or adding vegetative propagules was weighed into another pan. A known amount of the test compound dissolved or suspended in an organic solvent or water and applied in acetone or water as a carrier was thoroughly mixed with this cover soil, and the herbicide/soil mixture was used as a cover layer for the previously prepared pan. In Table A below the amounts of active ingredient were all equivalent to an application rate of 11.2 kilograms/hectare (kg/ha). After treatment, the pans were moved to a greenhouse bench where they were watered as needed to give adequate moisture for germination and growth.
(§4) Approximately 10-14 days (usually 11 days) after planting and treating, the plants were observed and the results recorded.
(§5) The plant species usually regarded as weeds which were utilized in one set of pre-emergent activity tests, the data for which are shown in Table A, are identified by letter headings printed diagonally above the columns according to the following legend: […]

Indian Mustard = conditions: Brassica juncea, pre-emergence, Inmu, 11.2 kg/ha, 10-14 days, read-out: herbicidal rating (% inhibition)
Method: as §1, §2, §3, §4, §5

Seedling Johnsongrass = conditions: Sorghum halepense, pre-emergence, Sejg, 11.2 kg/ha, 10-14 days, read-out: herbicidal rating (% inhibition)
Method: as §1, §2, §3, §4, §5

Wild Buckwheat = conditions: Fallopia convolvulus, pre-emergence, Wibw, 11.2 kg/ha, 10-14 days, read-out: herbicidal rating (% inhibition)
Method: as §1, §2, §3, §4, §5

Barnyardgrass = conditions: Echinochloa crus-galli, pre-emergence, Bygr, 11.2 kg/ha, 10-14 days, read-out: herbicidal rating (% inhibition)
How it was run: (§6)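 Seeds or vegetative propagules were set on topsoil compacted to 0.95 to 1.27 cm below the pan rim, then covered with soil thoroughly mixed with a known amount of test compound in acetone or water carrier. Ratings follow a scale of percent inhibition per species.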

Cocklebur = conditions: Xanthium strumarium, pre-emergence, Cobu, 11.2 kg/ha, 10-14 days, read-out: herbicidal rating (% inhibition)
How it was run: as §6

Downy Brome = conditions: Bromus tectorum, pre-emergence, Dobr, 11.2 kg/ha, 10-14 days, read-out: herbicidal rating (% inhibition)
How it was run: as §6

Morningglory = conditions: Ipomoea, pre-emergence, Mogl, 11.2 kg/ha, 10-14 days, read-out: herbicidal rating (% inhibition)
How it was run: as §6

Velvetleaf = conditions: Abutilon theophrasti, pre-emergence, Vele, 11.2 kg/ha, 10-14 days, read-out: herbicidal rating (% inhibition)
How it was run: as §6

Yellow Nutsedge = conditions: Cyperus, pre-emergence, Yens, 11.2 kg/ha, 10-14 days, read-out: herbicidal rating (% inhibition)
How it was run: as §6

SMILES	inhibition at 11200 g/ha (Annual Bluegrass) [%]	inhibition at 11200 g/ha (Indian Mustard) [%]	inhibition at 11200 g/ha (Seedling Johnsongrass) [%]	inhibition at 11200 g/ha (Wild Buckwheat) [%]	inhibition at 11200 g/ha (Barnyardgrass) [%]	inhibition at 11200 g/ha (Cocklebur) [%]	inhibition at 11200 g/ha (Downy Brome) [%]	inhibition at 11200 g/ha (Morningglory) [%]	inhibition at 11200 g/ha (Velvetleaf) [%]	inhibition at 11200 g/ha (Yellow Nutsedge) [%]
COC(=O)c1c(OC(Cl)(Cl)Cl)nc(C(F)(F)F)c(C(=O)OC)c1CC(C)C [Compound 96, 3,5-pyridinedicarboxylic acid, 4-(2-methylpropyl)-2-(trichloromethoxy)-6-(trifluoromethyl)-, dimethyl ester]	75 to 100	75 to 100	75 to 100	75 to 100	75 to 100	0 to 24	50 to 74	75 to 100	75 to 100	0 to 24
COC(=O)c1c(OC)nc(C(F)(F)F)c(C2=NCCCO2)c1CC(C)C [Compound 99]	75 to 100	75 to 100	75 to 100	25 to 49	75 to 100	0 to 24	75 to 100	50 to 74	75 to 100	0 to 24
COC(=O)c1c(OC)nc(C(F)(F)F)c(C(=O)NNC(C)=O)c1CC(C)C [Compound 100, 3,5-pyridinedicarboxylic acid, 2-methoxy-4-(2-methylpropyl)-6-(trifluoromethyl)-, 3-methyl ester 5-(2-acetylhydrazide)]	75 to 100	0 to 24	0 to 24	0 to 24	0 to 24	0 to 24	0 to 24	0 to 24	0 to 24	0 to 24
COC(=O)c1c(OC)nc(C(F)(F)F)c(C(=O)n2cc([N+](=O)[O-])cn2)c1CC(C)C [Compound 101, 3-pyridinecarboxylic acid, 2-methoxy-4-(2-methylpropyl)-5-[(4-nitro-1H-pyrazo1-1-yl)carbonyl]-6-(trifluoromethyl)-, methyl ester]	75 to 100	75 to 100	75 to 100	75 to 100	75 to 100	25 to 49	50 to 74	50 to 74	50 to 74	0 to 24
COC(=O)c1c(OC)nc(C(F)(F)F)c(C(=O)n2ccc(F)n2)c1CC(C)C [Compound 102, 3-pyridinecarboxylic acid, 5-[(3-fluoro-1H-pyrazo1-1-yl)carbonyl]-2-methoxy-4-(2-methylpropyl)-6-(trifluoromethyl)-, methyl ester]	75 to 100	75 to 100	75 to 100	75 to 100	75 to 100	75 to 100	75 to 100	75 to 100	75 to 100	75 to 100
COC(=O)c1c(OC)nc(C(F)(F)F)c(C(=O)n2cc(Cl)cn2)c1CC(C)C [Compound 104]	75 to 100	75 to 100	75 to 100	50 to 74	75 to 100	0 to 24	50 to 74	50 to 74	50 to 74	0 to 24
COC(=O)c1c(OC)nc(C(F)(F)F)c(C(N)=O)c1CC(C)C [Compound 105, 3-pyridinecarboxylic acid, 5-(aminocarbonyl)-2-methoxy-4-(2-methylpropyl)-6-(trifluoromethyl)-, methyl ester]	75 to 100	0 to 24	75 to 100	25 to 49	75 to 100	0 to 24	0 to 24	0 to 24	0 to 24	0 to 24
COC(=O)c1c(OC)nc(C(F)(F)F)c(C#N)c1CC(C)C [Compound 106, 3-pyridinecarboxylic acid, 5-cyano-2-methoxy-4-(2-methylpropyl)-6-(trifluoromethyl)-, methyl ester]	75 to 100	75 to 100	0 to 24	75 to 100	75 to 100	0 to 24	75 to 100	50 to 74	0 to 24	0 to 24
COC(=O)c1c(OC)nc(C(F)(F)F)c(C(=O)n2cc(NC(C)=O)cn2)c1CC(C)C [Compound 107, 3-pyridinecarboxylic acid, 5-[[4-(acetylamino)-1H-pyrazol-1-yl]carbonyl]-2-methoxy-4-(2-methylpropyl)-6-(trifluoromethyl)-, methyl ester]	75 to 100	75 to 100	75 to 100	50 to 74	75 to 100	0 to 24	0 to 24	75 to 100	75 to 100	0 to 24
COC(=O)c1c(OC)nc(C(F)(F)F)c(C(=O)n2cc(N)cn2)c1CC(C)C [Compound 108, 3-pyridinecarboxylic acid, 5-[(4-amino-1H-pyrazo1-1-yl)carbonyl]-2-methoxy-4-(2-methylpropyl)-6-(trifluoromethyl)-, methyl ester]	75 to 100	75 to 100	50 to 74	75 to 100	75 to 100	0 to 24	0 to 24	0 to 24	50 to 74	0 to 24
COC(=O)c1c(OC)nc(C(F)(F)F)c(C2OCCO2)c1CC(C)C [Compound 109, 3-pyridinecarboxylic acid, 5-(1,3-dioxolan-2-yl)-2-methoxy-4-(2-methylpropyl)-6-(trifluoromethyl)-, methyl ester]	75 to 100	75 to 100	75 to 100	75 to 100	75 to 100	75 to 100	75 to 100	75 to 100	75 to 100	75 to 100
COC(=O)c1c(OC)nc(C(F)(F)F)c(C2OCCCO2)c1CC(C)C [Compound 110, 3-pyridinecarboxylic acid, 5-(1,3-dioxan-2-yl)-2-methoxy-4-(2-methylpropyl)-6-(trifluoromethyl)-, methyl ester]	75 to 100	75 to 100	75 to 100	75 to 100	75 to 100	75 to 100	75 to 100	75 to 100	75 to 100	50 to 74
